In article PMC9468151, “Identification of a binding site on soluble RANKL that can be targeted to inhibit soluble RANK-RANKL interactions and treat osteoporosis” (Nature Communications, 2022):
Entries after “also recorded” stand apart in the source; their conditions may differ.

Test system: sRANKL induced osteoclast differentiation
Assay: In vitro anti-osteoclastogenesis activity determination (TRAP staining)
Type: cell-based, mouse
Conditions: BMMs, M-CSF + 100 ng/mL sRANKL, 5 days, TRAP staining
Description: Mouse osteoclasts were cultured according to the previously reported protocols. BMMs were plated in 96-well plates at a density of 6 × 10^3 cells/well with complete medium containing 10 ng/mL M-CSF. The following day, cells were then stimulated with 100 ng/mL sRANKL in the presence or absence of compounds with different concentrations every 2 days until osteoclasts formed. In order to calculate IC50, we set 9 concentrations for each compound and untreated and non-sRANKL unstimulating group as controls, each with triplicated repeated wells. After 5 days, cells were fixed with 4% paraformaldehyde and then applied TRAP-staining to identify osteoclasts by using the TRAP-staining kit. Osteoclasts number (OC No.) in each well was counted and the percentage of inhibition ratio was calculated as follows:1 OCinhibitoryratio%=100−OCNo.treated−OCNo.unstimulating/OCNo.untreated−OCNo.unstimulating×100%
The dosages and their correspondent osteoclastogenesis inhibitory activity curve and IC50 value were conducted by using Nonlinear regression (curve fit) analytic procedure in GraphPad Prism 8. Photographs of individual wells were taken using Leica microscope.

## CCOC(=O)c1sc(NC(=O)C(=NNc2cc(C(=O)O)ccc2C(=O)O)C(C)=O)nc1C [S3-04]
  OC IC50 (anti-osteoclastogenesis activity): Inactive; also recorded: lose osetoclastogenesis inhibitory activities
